Source: BindingDB's records for doi:10.1080/14756360701810207 (Gyeongsang National University, 2008)
Where “and” joins values, the source holds several entries; their conditions need not be identical. Identical values can stand only once.

Biological target: T1, Polyphenol oxidase 2 (Agaricus bisporus, UniProt O42713)
T1 sequence (O42713 whole entry): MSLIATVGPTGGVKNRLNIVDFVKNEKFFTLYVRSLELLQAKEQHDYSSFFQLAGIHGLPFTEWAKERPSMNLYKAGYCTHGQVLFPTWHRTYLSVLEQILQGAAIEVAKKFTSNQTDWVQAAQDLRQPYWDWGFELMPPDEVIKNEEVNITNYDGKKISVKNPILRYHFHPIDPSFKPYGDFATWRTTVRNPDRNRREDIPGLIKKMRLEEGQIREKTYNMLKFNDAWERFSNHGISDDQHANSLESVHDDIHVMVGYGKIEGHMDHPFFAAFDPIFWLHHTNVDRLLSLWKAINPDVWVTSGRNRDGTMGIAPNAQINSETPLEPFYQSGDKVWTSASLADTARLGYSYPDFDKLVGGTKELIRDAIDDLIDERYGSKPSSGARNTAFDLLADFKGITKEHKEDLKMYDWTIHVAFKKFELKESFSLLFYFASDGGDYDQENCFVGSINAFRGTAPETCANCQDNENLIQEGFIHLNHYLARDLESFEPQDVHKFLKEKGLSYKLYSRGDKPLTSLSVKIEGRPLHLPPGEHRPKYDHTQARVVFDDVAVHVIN
Assay: Tyrosinase Assay
Conditions: 30 °C
Description: Mushroom tyrosinase using either L-DOPA or L-tyrosine as substrate. In spectrophotometric experiments, enzyme activity was monitored by dopachrome formation at 475 nm with a UV-Vis spectrophotometer (Spectro UV-Vis Double beam; UVD-3500, Labomed, Inc.) at 30 C.

SMILES	IC50	Ki
CC(C)=CCc1c(-c2ccc(O)cc2O)oc2c(CC=C(C)C)c(O)cc(O)c2c1=O	135 µM and > 300 µM	80.5 µM
CC(C)=CC1Oc2cc(O)ccc2-c2oc3c4c(cc(O)c3c(=O)c21)OC(C)(C)C=C4 (stereo not drawn) [Cycolmorusin, 2]	91.6 µM and 161 µM	46.4 µM
C/C(=C\Cc1c(-c2ccc(O)cc2O)oc2c3c(cc(O)c2c1=O)OC(C)(CO)C=C3)CO (stereo not drawn) [Mormin, 1]	87.8 µM and 215 µM	49.2 µM
CC(C)=CCc1c(-c2ccc(O)cc2O)oc2c3c(cc(O)c2c1=O)OC(C)(C)C=C3 [Morusin, 3]	> 300 µM	
O=c1cc(-c2ccc(O)cc2O)oc2cc(O)cc(O)c12 [Norartocarpetin, 5]		0.61 µM
